The values below come from US12698289B2, “Solid forms of pharmaceutically acceptable salts of (S)-(2-ethyl-5-fluoro-4-hydroxyphenyl)-1H-indazol-3-yl)-4,6-dihydropyrrolo[3,4-d]imidazol-5(1H)-yl)(3-hydroxypyrrolidin-1-yl)methanone as JAK inhibitors” (HENAN MEDINNO PHARMACEUTICAL TECHNOLOGY CO., LTD., priority 2019, dated 2026).

For the test, the system named is human T cells. Nature of the test: IL-2 induced human T cell proliferation assay (Celltiter Glo). To be noted: HT, 72 h, read-out: IC50 (nM), human T cell proliferation. In general terms: Cellular ATP, detected with luciferase, serves as a proxy for viable cell number.

Description: The purpose of this example is to assay the activity of the compound in the JAK cell activity assay-human T cell proliferation assay.

For `CCc1cc(O)c(F)cc1-c1ccc2c(-c3nc4c([nH]3)CN(C(=O)N3CC[C@H](O)C3)C4)n[nH]c2c1` [Compound of formula (I), (S)-(2-(6-(2-ethyl-5-fluoro-4-hydroxyphenyl)-1H-indazol-3-yl)-4,6-dihydropyrrolo[3,4-d]imidazol-5-(1H)-yl) (3-hydroxy pyrrolidin-1-yl) ketone], the IC50 is 13 nM.
